In patent US20170066759A1, “AROMATIC 5-MEMBERED HETEROCYCLIC DERIVATIVE HAVING TRPV4-INHIBITING ACTIVITY” (Shionogi & Co., Ltd., priority 2012, published 2017):
pIC50: −log10 of the molar value.

biological target: T1, human TRPV4 (hTRPV4/CHO cells) (Homo sapiens, UniProt Q9HBA0); assay: Test Example 1: TRPV4 inhibitory activity (IC50 value), 4α-PDD stimulation, Fluo4 calcium fluorescence (FLIPR TETRA); assay type: cell-based; details: 1 μmol/L 4α-PDD, Fluo4-AM, read-out: TRPV4 inhibitory activity (IC50 value)
T1 construct: expressed in transfected cells; host or cells: CHO-K1
T1 sequence (Q9HBA0 whole entry): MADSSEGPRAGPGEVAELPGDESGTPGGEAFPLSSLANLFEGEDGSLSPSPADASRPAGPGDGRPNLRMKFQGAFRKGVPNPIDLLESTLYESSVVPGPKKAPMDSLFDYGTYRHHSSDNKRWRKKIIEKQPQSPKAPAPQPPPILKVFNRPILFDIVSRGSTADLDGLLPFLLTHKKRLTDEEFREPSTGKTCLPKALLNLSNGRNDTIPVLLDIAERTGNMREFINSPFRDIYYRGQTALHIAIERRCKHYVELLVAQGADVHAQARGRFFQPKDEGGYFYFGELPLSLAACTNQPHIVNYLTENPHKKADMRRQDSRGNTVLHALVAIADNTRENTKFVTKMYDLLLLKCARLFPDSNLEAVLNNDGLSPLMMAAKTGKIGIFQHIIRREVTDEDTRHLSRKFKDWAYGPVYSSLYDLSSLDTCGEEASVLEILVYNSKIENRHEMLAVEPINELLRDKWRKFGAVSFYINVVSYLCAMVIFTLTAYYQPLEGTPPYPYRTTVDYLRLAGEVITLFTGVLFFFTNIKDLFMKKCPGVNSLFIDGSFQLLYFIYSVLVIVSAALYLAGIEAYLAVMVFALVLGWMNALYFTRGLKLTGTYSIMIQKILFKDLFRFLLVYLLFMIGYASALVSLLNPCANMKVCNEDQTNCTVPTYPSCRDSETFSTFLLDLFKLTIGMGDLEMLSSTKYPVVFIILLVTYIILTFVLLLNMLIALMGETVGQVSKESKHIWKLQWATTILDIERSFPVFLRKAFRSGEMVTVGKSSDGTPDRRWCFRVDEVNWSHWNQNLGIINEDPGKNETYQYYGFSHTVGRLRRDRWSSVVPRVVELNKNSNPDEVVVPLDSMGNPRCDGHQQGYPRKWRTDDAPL

`Cc1nc(C)c(-c2csc(NC(=O)Cc3cc(OCC(F)(F)F)cc(C(=O)N[C@H](c4ccccc4)C(F)(F)F)c3)n2)s1` [Compound I-521] gave a pIC50 of 8.80.

same assay, conditions: Test Example 1, 4α-PDD stimulation, read-out: Test 1 IC50

Compared with `Cc1nc(C)c(-c2csc(NC(=O)Cc3ccc(S(=O)(=O)C(F)(F)F)cc3)n2)s1` [Compound I-117], `Cc1nc([C@H](C)O)sc1-c1csc(NC(=O)Cc2ccc(S(=O)(=O)C(F)(F)F)cc2)n1` [Compound I-454] is higher in pIC50: 6.00 to 7.00 for the first, over 7.00 for the second. The second is the more potent here.

Compared with `Cc1nc(C)c(-c2csc(NC(=O)C3CN(c4cnc(C(F)(F)F)cn4)C3)n2)s1` [Compound I-534], `Cc1nc(C)c(-c2csc(NC(=O)C3CN(c4ccc(C(F)(F)F)nn4)C3)n2)s1` [Compound I-284] is lower in pIC50: over 7.00 for the first, 6.00 to 7.00 for the second.

First: Cc1nc(C)c(-c2csc(NC(=O)Cn3cc(COc4ccccc4)nn3)n2)s1 [Compound I-424]
Second: CCOc1cn(CC(=O)Nc2nc(-c3sc(C)nc3C)cs2)nn1 [Compound I-431]
The pIC50 of the first is higher: over 7.00 for the first, 5.10 to 6.00 for the second.

First: Cc1nc(CO)sc1-c1csc(NC(=O)[C@H]2C[C@@H](OCC(F)(F)F)C2)n1 [Compound I-356]
Second: Cc1nc(CO)sc1-c1csc(NC(=O)[C@H]2C[C@@H](OCc3ccccc3C(F)(F)F)C2)n1 [Compound I-346]
The pIC50 of the first is lower: 6.00 to 7.00 for the first, over 7.00 for the second. The second is the more potent here.

Compared with `Cc1nc(OCCO)sc1-c1csc(NC(=O)Cc2ccc(S(=O)(=O)C(F)(F)F)cc2)n1` [Compound I-461], `Cc1nc(CCO)sc1-c1csc(NC(=O)Cc2ccc(S(=O)(=O)C(F)(F)F)cc2)n1` [Compound I-437] is higher in pIC50: 6.00 to 7.00 for the first, over 7.00 for the second.

`Cc1nc(CO)sc1-c1csc(NC(=O)C2CN(c3ncc(C(F)(F)F)cn3)C2)n1` [Compound I-307] and `Cc1nc(C)c(-c2csc(NC(=O)[C@@H]3CCN(c4ncc(C(F)(F)F)cn4)C3)n2)s1` [Compound I-394] cannot be ordered by pIC50: over 7.00 for the first, over 7.00 for the second.

`COCCOc1cc(CC(=O)Nc2nc(-c3sc(C)nc3C)cs2)cc(C(=O)N[C@H](c2ccccc2)C(F)(F)F)c1` [Compound I-513] and `Cc1nc(C)c(-c2csc(NC(=O)Cc3cc(OCC4CC4)cc(C(=O)N[C@H](c4ccccc4)C(F)(F)F)c3)n2)s1` [Compound I-522] cannot be ordered by pIC50: over 7.00 for the first, over 7.00 for the second.

`Cc1nc(C)c(-c2csc(NC(=O)[C@@H]3C[C@@H](c4ccccc4)CN3CC(F)(F)F)n2)s1` [Compound I-292] and `Cc1nc(CO)sc1-c1csc(NC(=O)[C@@H]2C[C@@H](c3ccccc3)CN2C(=O)C(F)(F)F)n1` [Compound I-290] cannot be ordered by pIC50: over 7.00 for the first, over 7.00 for the second.

`Cc1nc(C)c(-c2csc(NC(=O)C3CN(Cc4cccc(C(F)(F)F)c4)C3)n2)s1` [Compound I-262] and `Cc1nc(C)c(-c2csc(NC(=O)C3CN(S(=O)(=O)c4ccc(C(F)(F)F)cc4)C3)n2)s1` [Compound I-264] cannot be ordered by pIC50: over 7.00 for the first, over 7.00 for the second.

`Cc1nc(C)c(-c2csc(NC(=O)Cc3ccc(S(C)(=O)=O)cc3F)n2)s1` [Compound I-92] and `Cc1nc(C)c(-c2csc(NC(=O)Cc3cccc(N)c3)n2)s1` [Compound I-409] fall in the same range of pIC50: 6.00 to 7.00 for the first, 6.00 to 7.00 for the second.

First: Cc1nc(C)c(-c2csc(NC(=O)[C@@H]3C[C@@H](c4ccccc4)CN3S(=O)(=O)C(C)C)n2)s1 [Compound I-301]
Second: Cc1nc(C)c(-c2csc(NC(=O)[C@H]3CC[C@@H](c4ccccc4)N3)n2)s1 [Compound I-215]
The pIC50 of the first is higher: over 7.00 for the first, 6.00 to 7.00 for the second. The first is the more potent here.

`O=C(Nc1nc(-c2sc(CO)nc2CO)cs1)C1CN(c2ccc(C(F)(F)F)cc2)C1` [Compound I-302] and `CC(C)c1ccc(N2CC(C(=O)Nc3nc(-c4sc(CO)nc4CO)cs3)C2)cc1` [Compound I-341] cannot be ordered by pIC50: over 7.00 for the first, over 7.00 for the second.

`O=C(Cc1ccc(S(=O)(=O)C(F)(F)F)cc1)Nc1nc(-c2sc(CO)nc2CCN2CCOCC2)cs1` [Compound I-375] and `O=C(Cc1ccc(S(=O)(=O)C(F)(F)F)cc1)Nc1nc(-c2sc(CO)nc2CCO)cs1` [Compound I-366] cannot be ordered by pIC50: over 7.00 for the first, over 7.00 for the second.

First: Cc1nc(C)c(-c2csc(NC(=O)[C@@H]3C[C@@H](Oc4ccccc4)CN3C(=O)CO)n2)s1 [Compound I-252]
Second: Cc1nc(C)c(-c2csc(NC(=O)[C@@H]3C[C@@H](Oc4ccccc4)CN3)n2)s1 [Compound I-244]
The pIC50 of the first is lower: 5.10 to 6.00 for the first, 6.00 to 7.00 for the second. The second is the more potent here.

First: Cc1nc(C)c(-c2csc(NC(=O)C3CN(C(=O)c4ccccc4)C3)n2)s1 [Compound I-256]
Second: COC(=O)c1ccc(C(=O)N2CC(C(=O)Nc3nc(-c4sc(C)nc4C)cs3)C2)cc1 [Compound I-261]
The pIC50 of the first is lower: 5.10 to 6.00 for the first, 6.00 to 7.00 for the second.

First: Cc1nc(CO)sc1-c1csc(Nc2ccccn2)n1 [II-32]
Second: Cc1nc(CO)sc1-c1csc(NC(=O)/C=C/c2ccc(Cl)cc2)n1 [Compound I-466]
The pIC50 of the first is higher: over 7.00 for the first, 6.00 to 7.00 for the second. The first is the more potent here.

`Cc1nc(CO)sc1-c1csc(NC(=O)C2CN(S(=O)(=O)CCC(F)(F)F)C2)n1` [Compound I-433] and `Cc1nc(CO)sc1-c1csc(NC(=O)C2CN(C(=O)OCC(F)(F)F)C2)n1` [Compound I-308] fall in the same range of pIC50: 6.00 to 7.00 for the first, 6.00 to 7.00 for the second.

`Cc1nc(C(C)O)oc1-c1csc(NC(=O)Cc2ccc(S(=O)(=O)C(F)(F)F)cc2)n1` (racemic) [Compound I-387] and `Cc1nc(C)c(-c2csc(NC(=O)Cc3ccc(C(F)(F)F)cc3)n2)o1` [Compound I-139] fall in the same range of pIC50: 6.00 to 7.00 for the first, 6.00 to 7.00 for the second.

`COc1cc(CC(=O)Nc2nc(-c3sc(C)nc3C)cs2)cc(C(=O)NC(C(C)C)C(F)(F)F)c1` (racemic) [Compound I-527] and `Cc1nc(C)c(-c2csc(NC(=O)Cc3cc(OCC(F)(F)F)cc(C(=O)N[C@H](c4ccccc4)C(F)(F)F)c3)n2)s1` [Compound I-521] cannot be ordered by pIC50: over 7.00 for the first, over 7.00 for the second.

`COCC1(C(=O)Nc2nc(-c3sc(C)nc3C)cs2)CN(c2ccc(C(F)(F)F)cc2)C1` (racemic) [Compound I-531] and `Cc1nc(C)c(-c2csc(NC(=O)C3(C)CN(c4ccc(C(F)(F)F)cc4)C3)n2)s1` [Compound I-496] cannot be ordered by pIC50: over 7.00 for the first, over 7.00 for the second.

First: Cc1nc(CS(C)(=O)=O)c(-c2csc(NC(=O)Cc3ccc(S(=O)(=O)C(F)(F)F)cc3)n2)s1 [Compound I-485]
Second: O=C(Cc1ccc(S(=O)(=O)C(F)(F)F)cc1)Nc1nc(-c2sc(CO)nc2CO)cs1 [Compound I-174]
The pIC50 of the first is lower: 6.00 to 7.00 for the first, over 7.00 for the second. The second is the more potent here.

`O=C(Nc1nc(-c2sc(CO)nc2CO)cs1)C1CN(c2ccccc2Cl)C1` [Compound I-342] and `O=C(Nc1nc(-c2sc(CO)nc2CO)cs1)C1CC(c2ccccc2)C1` (stereo not shown) [Compound I-546] fall in the same range of pIC50: 6.00 to 7.00 for the first, 6.00 to 7.00 for the second.

`Cc1nc(C)c(-c2csc(NCC3Cc4ccccc4C3)n2)s1` [II-49] and `Cc1nc(C)c(-c2csc(NCCc3ccccc3)n2)s1` [II-35] cannot be ordered by pIC50: over 7.00 for the first, over 7.00 for the second.

`Cc1nc(C)c(-c2csc(NC(=O)[C@H]3C[C@@H](N(C)Cc4ccc(C(F)(F)F)cc4)C3)n2)s1` [Compound I-367] and `Cc1nc(CO)sc1-c1csc(NC(=O)[C@H]2C[C@@H](c3ccc(C(F)(F)F)cc3)C2)n1` [Compound I-405] cannot be ordered by pIC50: over 7.00 for the first, over 7.00 for the second.

First: Cc1nc(C)c(-c2csc(NC(=O)Cn3cc(C4CCCCC4)nn3)n2)s1 [Compound I-190]
Second: Cc1nc(C)c(-c2csc(NC(=O)Cn3cc(-c4ccc(N(C)C)cc4)nn3)n2)s1 [Compound I-427]
The pIC50 of the first is higher: over 7.00 for the first, 6.00 to 7.00 for the second.

Compared with `Cc1nc(C)c(-c2csc(NCCc3ccc(Cl)cc3)n2)s1` [II-36], `Cc1nc(C)c(-c2csc(CCOCc3ccc(Br)cc3)n2)s1` [II-51] is lower in pIC50: over 7.00 for the first, 5.10 to 6.00 for the second.

`Cc1nc(C)c(-c2csc(NC(=O)Cc3ccc(S(=O)(=O)N(C)c4ccc(C#N)cc4)cc3)n2)s1` [Compound I-163] and `Cc1nc(C)c(-c2csc(NC(=O)Cc3cccc(NS(=O)(=O)c4ccccc4)c3)n2)s1` [Compound I-418] cannot be ordered by pIC50: over 7.00 for the first, over 7.00 for the second.

`Cc1nc(C)c(-c2csc(NC(=O)C3CC(C(C)(C)C)=NO3)n2)s1` (stereo not shown) [Compound I-205] and `Cc1nc(C)c(-c2csc(NC(=O)C3Cc4ccccc4N3)n2)s1` (stereo not shown) [Compound I-177] fall in the same range of pIC50: 6.00 to 7.00 for the first, 6.00 to 7.00 for the second.

Compared with `Cc1nc(C(N)=O)sc1-c1csc(NC(=O)C2CC2(F)F)n1` (stereo not shown) [Compound I-106], `Cc1nc(CO)sc1-c1csc(NC(=O)[C@H]2C[C@H](C(F)F)C2)n1` [Compound I-552] is higher in pIC50: 5.10 to 6.00 for the first, 6.00 to 7.00 for the second. The second is the more potent here.

Compared with `Cc1nc(C)c(-c2csc(NC(=O)[C@@H]3C[C@@H](N4CCC(c5ccccc5)CC4)CN3)n2)s1` [Compound I-274], `Cc1nc(C)c(-c2csc(NC(=O)[C@@H]3CC[C@H](c4ccccc4)N3)n2)s1` [Compound I-216] is higher in pIC50: 5.10 to 6.00 for the first, 6.00 to 7.00 for the second.

Compared with `Cc1nc(CO)sc1-c1csc(NC(=O)CC2CC3(CCC3)C2)n1` [Compound I-457], `Cc1nc(CO)sc1-c1csc(NC(=O)Cn2cnc(C(F)(F)F)c2)n1` [Compound I-406] is lower in pIC50: over 7.00 for the first, 5.10 to 6.00 for the second. The first is the more potent here.

Compared with `NC(=O)Cc1nc(CO)sc1-c1csc(NC(=O)Cc2ccc(S(=O)(=O)C(F)(F)F)cc2)n1` [Compound I-358], `O=C(Cc1ccc(S(=O)(=O)C(F)(F)F)cc1)Nc1nc(-c2sc(CO)nc2CCCO)cs1` [Compound I-360] is higher in pIC50: 6.00 to 7.00 for the first, over 7.00 for the second. The second is the more potent here.

`Cc1nc(C)c(-c2csc(NC(=O)Cn3cc(-c4cccc(N(C)C)c4)cn3)n2)s1` [Compound I-149] and `Cc1nc(C)c(-c2csc(NC(=O)Cc3cccc(Br)c3)n2)s1` [Compound I-408] cannot be ordered by pIC50: over 7.00 for the first, over 7.00 for the second.

First: O=C(Cc1ccc(S(=O)(=O)C(F)(F)F)cc1)Nc1nc(-c2sc(CO)nc2CN2CCOC2=O)cs1 [Compound I-483]
Second: O=C(Cc1ccc(S(=O)(=O)C(F)(F)F)cc1)Nc1nc(-c2sc(CO)nc2/C=C/CO)cs1 [Compound I-320]
The pIC50 of the first is lower: 6.00 to 7.00 for the first, over 7.00 for the second.

`Cc1nc(C)c(-c2csc(NC(=O)C3(CCCO)CN(c4ccc(C(F)(F)F)cc4)C3)n2)s1` (racemic) [Compound I-529] and `Cc1nc(C)c(-c2csc(NC(=O)CN3CCN(c4ccccc4)CC3)n2)s1` [Compound I-144] fall in the same range of pIC50: 6.00 to 7.00 for the first, 6.00 to 7.00 for the second.

Compared with `Cc1nc(C)c(-c2nsc(NC(=O)Cc3ccc(C(O)C(F)(F)F)cc3)n2)s1` (stereo not shown) [Compound I-544], `COC(=O)N(C)Cc1nc(CO)sc1-c1csc(NC(=O)Cc2ccc(S(=O)(=O)C(F)(F)F)cc2)n1` [Compound I-434] is higher in pIC50: 5.10 to 6.00 for the first, over 7.00 for the second.

First: Cc1nc(C)c(-c2csc(C(=O)NCc3cccc(F)c3)n2)s1 [II-2]
Second: Cc1nc(C)c(-c2csc(NC(=O)Cc3cccc(NC(=O)C4CCCCC4)c3)n2)s1 [Compound I-416]
The pIC50 of the first is lower: 5.10 to 6.00 for the first, over 7.00 for the second.

`Cc1nc(C)c(-c2csc(NC(=O)C3CN(S(=O)(=O)c4ccc(Cl)cc4Cl)C3)n2)s1` [Compound I-503] was tested, and the pIC50 was over 7.00.
